The assay relates to Haemophilus influenzae. The experiment in a line: Antibacterial activity against gram-negative bacteria, Haemophilus influenzae; A - found to be active. It is filed as functional, organism-based.

The values that follow come from ChEMBL document CHEMBL1128652, “Synthesis of the macrolide antibiotic, oxolide” (Bioorg Med Chem Lett, 1995).

Each structure is given as a SMILES string. Activity calls are given as the source filed them. The rule behind the calls is not given here.

On to `CC[C@H]1OC(=O)[C@H](C)[C@@H](O[C@H]2C[C@@](C)(OC)[C@@H](O)[C@H](C)O2)[C@H](C)[C@@H](O[C@@H]2O[C@H](C)C[C@H](N(C)C)[C@H]2O)[C@@](C)(O)C[C@@H](C)[C@@H]2O[C@]1(C)[C@@H](N)[C@H]2C`, for which the result was Active.
